Literature values, collected in PubChem BioAssay AID1259409 (Chemical Carcinogenesis Research Information System (CCRIS), 2018).

Tested on: rodent chemically induced tumor inhibition, incidence and multiplicity
Assay: CCRIS tumor inhibitor studies
Conditions: Route [Inhibitor]: ORAL, Species: RAT, Strain/Sex: F344/MALE, Promoter: NONE USED

For O=C1O[C@H]([C@@H](O)CO)C(O)=C1O, the “tumour outcome (control, treated, inhibition, significance)” value (Carcinogen: N-BIS(2-HYDROXYPROPYL)NITROSAMINE, 53609-64-6, Dose [Inhibitor]: 0, 5% IN DIET FOR 30 WK BEGINNING POST CARCINOGEN TREATMENT (STUDY DURATION: 32 WK), Target Tissue: Type of Lesion: BLADDER: ADENOMA, Dose [Carcinogen]: 0.1% IN DRINKING WATER FOR 2 WK) is given as 5%, 10%, -100%, not calculated, the “tumour outcome (control, treated, inhibition, significance)” value (Carcinogen: N-BIS(2-HYDROXYPROPYL)NITROSAMINE, 53609-64-6, Dose [Inhibitor]: 0, 5% IN DIET FOR 30 WK BEGINNING POST CARCINOGEN TREATMENT (STUDY DURATION: 32 WK), Target Tissue: Type of Lesion: KIDNEY: TUMOR, Dose [Carcinogen]: 0.1% IN DRINKING WATER FOR 2 WK) is given as 10%, 30%, -200%, not calculated and the “tumour outcome (control, treated, inhibition, significance)” value (Carcinogen: N-BIS(2-HYDROXYPROPYL)NITROSAMINE, 53609-64-6, Dose [Inhibitor]: 0, 5% IN DIET FOR 30 WK BEGINNING POST CARCINOGEN TREATMENT (STUDY DURATION: 32 WK), Target Tissue: Type of Lesion: LUNG: ADENOMA, Dose [Carcinogen]: 0.1% IN DRINKING WATER FOR 2 WK) is given as 100%, 100%, 0%, not significant. The “tumour outcome (control, treated, inhibition, significance)” value (Carcinogen: N-BIS(2-HYDROXYPROPYL)NITROSAMINE, 53609-64-6, Dose [Inhibitor]: 0, 5% IN DIET FOR 30 WK BEGINNING POST CARCINOGEN TREATMENT (STUDY DURATION: 32 WK), Target Tissue: Type of Lesion: LUNG: CARCINOMA, Dose [Carcinogen]: 0.1% IN DRINKING WATER FOR 2 WK) was 45%, 20%, 56%, not calculated, the “tumour outcome (control, treated, inhibition, significance)” value (Carcinogen: N-BIS(2-HYDROXYPROPYL)NITROSAMINE, 53609-64-6, Dose [Inhibitor]: 0, 5% IN DIET FOR 30 WK BEGINNING POST CARCINOGEN TREATMENT (STUDY DURATION: 32 WK), Target Tissue: Type of Lesion: THYROID: ADENOMA, Dose [Carcinogen]: 0.1% IN DRINKING WATER FOR 2 WK) was 5%, 30%, -500%, not calculated and the “tumour outcome (control, treated, inhibition, significance)” value (Carcinogen: N-BIS(2-HYDROXYPROPYL)NITROSAMINE, 53609-64-6, Dose [Inhibitor]: 0, 5% IN DIET FOR 30 WK BEGINNING POST CARCINOGEN TREATMENT (STUDY DURATION: 32 WK), Target Tissue: Type of Lesion: THYROID: CARCINOMA, Dose [Carcinogen]: 0.1% IN DRINKING WATER FOR 2 WK) was 20%, 10%, 50%, not calculated. For the same compound, the “tumour outcome (control, treated, inhibition, significance)” value (Carcinogen: N-BUTYL-N-(4-HYDROXYBUTYL)NITROSAMINE, 3817-11-6, Dose [Inhibitor]: 4.45% IN BASAL DIET ADMINISTERED SIMULTANEOUSLY WITH CARCINOGEN DOSE FOR 20 WK (STUDY DURATION: 20 WK), Target Tissue: Type of Lesion: BLADDER: CARCINOMA, Dose [Carcinogen]: 0.025% IN DRINKING WATER FOR 20 WK) was 3/15 (20%), 6/14 (43%), -115%, not calculated, the “tumour outcome (control, treated, inhibition, significance)” value (Carcinogen: N-BUTYL-N-(4-HYDROXYBUTYL)NITROSAMINE, 3817-11-6, Dose [Inhibitor]: 4.45% IN BASAL DIET ADMINISTERED SIMULTANEOUSLY WITH CARCINOGEN DOSE FOR 20 WK (STUDY DURATION: 20 WK), Target Tissue: Type of Lesion: BLADDER: PAPILLOMA, Dose [Carcinogen]: 0.025% IN DRINKING WATER FOR 20 WK (FOR A TOTAL INTAKE OF 4.0 MMOL/RAT)) was 4/15 (27%), 4/14 (29%), -7%, not calculated and the “tumour outcome (control, treated, inhibition, significance)” value (Carcinogen: N-BUTYL-N-(4-HYDROXYBUTYL)NITROSAMINE, 3817-11-6, Dose [Inhibitor]: 5% DIET DAILY FOR 34 WK BEGINNING POST CARCINOGEN TREATMENT (STUDY DURATION: 38 WK), Target Tissue: Type of Lesion: URINARY BLADDER: PAPILLOMA, Dose [Carcinogen]: 0.01% IN DRINKING WATER FOR 4 WK) was 33%, 21%, 36%, not significant. The “tumour outcome (control, treated, inhibition, significance)” value (Carcinogen: N-BUTYL-N-(4-HYDROXYBUTYL)NITROSAMINE, 3817-11-6, Dose [Inhibitor]: 5% IN BASAL DIET ADMINISTERED SIMULTANEOUSLY WITH CARCINOGEN DOSE FOR 20 WK (STUDY DURATION: 20 WK), Target Tissue: Type of Lesion: BLADDER: CARCINOMA, Dose [Carcinogen]: 0.025% IN DRINKING WATER FOR 20 WK) was 3/15 (20%), 6/15 (40%), -100%, not calculated, the “tumour outcome (control, treated, inhibition, significance)” value (Carcinogen: N-BUTYL-N-(4-HYDROXYBUTYL)NITROSAMINE, 3817-11-6, Dose [Inhibitor]: 5% IN BASAL DIET ADMINISTERED SIMULTANEOUSLY WITH CARCINOGEN DOSE FOR 20 WK (STUDY DURATION: 20 WK), Target Tissue: Type of Lesion: BLADDER: PAPILLOMA, Dose [Carcinogen]: 0.025% IN DRINKING WATER FOR 20 WK (FOR A TOTAL INTAKE OF 4.7 MMOL/RAT)) was 4/15 (27%), 2/15 (13%), 50%, not significant and the “tumour outcome (control, treated, inhibition, significance)” value (Carcinogen: N-ETHYL-N-(4-HYDROXYBUTYL)NITROSAMINE, 54897-62-0, Dose [Inhibitor]: 4.45% IN BASAL DIET ADMINISTERED SIMULTANEOUSLY WITH CARCINOGEN DOSE FOR 20 WK (STUDY DURATION: 20 WK), Target Tissue: Type of Lesion: BLADDER: CARCINOMA, Dose [Carcinogen]: 0.021% IN DRINKING WATER FOR 20 WK) was 13/15 (87%), 14/15 (93%), -8%, not calculated. For the same compound, the “tumour outcome (control, treated, inhibition, significance)” value (Carcinogen: N-ETHYL-N-(4-HYDROXYBUTYL)NITROSAMINE, 54897-62-0, Dose [Inhibitor]: 4.45% IN BASAL DIET ADMINISTERED SIMULTANEOUSLY WITH CARCINOGEN DOSE FOR 20 WK (STUDY DURATION: 20 WK), Target Tissue: Type of Lesion: BLADDER: PAPILLOMA, Dose [Carcinogen]: 0.021% IN DRINKING WATER FOR 20 WK) was 14/15 (93%), 15/15 (100%), -7%, not calculated and the “tumour outcome (control, treated, inhibition, significance)” value (Carcinogen: N-ETHYL-N-(4-HYDROXYBUTYL)NITROSAMINE, 54897-62-0, Dose [Inhibitor]: 5% IN BASAL DIET ADMINISTERED SIMULTANEOUSLY WITH CARCINOGEN DOSE FOR 20 WK (STUDY DURATION: 20 WK), Target Tissue: Type of Lesion: BLADDER: CARCINOMA, Dose [Carcinogen]: 0.021% IN DRINKING WATER FOR 20 WK) was 13/15 (87%), 13/15 (87%), 0%, not significant.
